{"source": "paper PMC12339328", "about": "“Therapeutic effect and mechanism of gigantol on hyperuricemia” (Frontiers in Endocrinology, 2025)", "key": {"[1]": {"test_system": "mice with HUA induced by potassium oxonate", "assay": "Serum and urine UA, CRE and BUN in HUA mice", "type": "in vivo", "description": "On day 6, the mice were transferred to a metabolic cage, given free water and diet, and 24-h urine samples were collected for the determination of UA, CRE, and BUN levels. One hour after the last administration, 2 mL of blood was taken through eyeball extraction, and the mice were killed by euthanasia. Mice were dissected and the livers and kidneys were removed.\nBlood obtained from mice in each group was centrifuged at 3,000 r/min for 15 min in a low-temperature high-speed centrifuge. Then, the serum was separated, and the levels of UA, CRE, and BUN in the serum were measured by the kits. The levels of TNF-α, IL-1β, IL-6, and NLRP3 in serum were detected by ELISA kits. Liver and kidney tissues were homogenized by adding ice-cold saline, and homogenates were centrifuged at 12,000 r/min for 10 min. XOD activity in the supernatant of the liver tissues was measured, and the levels of TNF-α, IL-1β, IL-6, and NLRP3 in the supernatant of the kidney tissues were measures by ELISA kits."}, "GLUT9": {"test_system": "GLUT9", "assay": "GLUT9 protein expression in kidney of HUA mice (Western blot)", "type": "in vivo", "conditions": "gigantol, dose-dependent, vs model group"}, "AML12 cells": {"test_system": "AML12 cells", "assay": "UA level in AML12 HUA cell model", "type": "cell-based, mouse", "conditions": "adenosine + XOD induced; gigantol 25, 50, 100 μmol/L; p < 0.001"}, "IL-1β": {"test_system": "IL-1β", "assay": "IL-1β content in HK-2 HUA cell model (ELISA)", "type": "cell-based, human", "conditions": "only the high-dose group showing a downward trend (p < 0.01)", "description": "HK-2 cells were treated as described above. The supernatant of the medium was collected, and the levels of proinflammatory cytokines (TNF-α, IL-6, and IL-1β) and the NLRP3 inflammasome component in the supernatant were detected using commercially available ELISA kits according to the manufacturers’ protocols."}, "XOD": {"test_system": "XOD", "conditions": "for xod / β (reference protein) ratio / xod protein expression, band value: AML12, replicates 1-3; for XOD protein expression in AML12 cells: HUA cell model, gigantol 25, 50, 100 µmol/L, vs model group, p < 0.001"}, "[2]": {"conditions": "rat, in vivo", "experimental": "Whole blood was taken into heparinized tubes at predefined time points (2, 5, 10, 20, and 30 min, and 1, 2, 4, 6, 8, and 12 h) after administration, and plasma was separated by centrifugation and stored at −20°C until testing. […] Whole blood was taken into heparinized tubes at predefined time points (2, 5, 10, 20, and 30 min, and 1, 2, 4, 6, 8, and 12 h) after administration, and plasma was separated by centrifugation and stored at −20°C until testing. […] Pharmacokinetic parameters were calculated by using the pharmacokinetics software WinNonlin 8.1."}, "Caspase-1": {"test_system": "Caspase-1", "assay": "Caspase-1 protein expression in HK-2 cells (Western blot)", "conditions": "for CASPASE / β (reference protein) ratio / CASPASE protein expression, band value: HK-2, replicates 1-3"}, "[3]": {"conditions": "24-h urine, after gigantol treatment"}, "[4]": {"conditions": "gigantol 5, 10, 20 mg/kg gavage 7 days, vs model group, high dose p < 0.001"}}, "note": "Values joined by “and” are separate entries in the source; they are usually repeats but may differ in a detail not shown here. Identical values can stand only once. “Also recorded” adds a separate entry of the source. Like-named read-outs stand apart in the source and are kept apart here.", "data": [{"substance": "5-[2-(3-hydroxy-5-methoxyphenyl) ethyl]-2-methoxyphenol [gigantol]", "values": [{"measurement": "urine BUN level", "setting": "[1]; [3]", "result": "increased"}, {"measurement": "urine CRE level", "setting": "[1]; [3]", "result": "increased"}, {"measurement": "urine UA content", "setting": "[1]; 24-h urine, gigantol 5, 10, 20 mg/kg gavage, vs model group, p < 0.01", "result": "increased significantly in a dose-dependent manner"}, {"measurement": "serum BUN level", "setting": "[1]; [4]", "result": "significantly reduced"}, {"measurement": "serum CRE level", "setting": "[1]; [4]", "result": "significantly reduced"}, {"measurement": "serum UA level", "setting": "[1]; [4]", "result": "significantly reduced"}, {"measurement": "GLUT9 protein expression in kidney", "setting": "GLUT9", "result": "significantly reduced"}, {"measurement": "UA level in AML12 cells", "setting": "AML12 cells", "result": "suppressed"}, {"measurement": "inhibitory effect on IL-1β in HK-2 cells", "setting": "IL-1β", "result": "relatively weak"}, {"measurement": "xod / β (reference protein) ratio", "setting": "XOD; 中 = gigantol 50 µmol/L", "result": "1.517 and 1.501 and 1.526"}, {"measurement": "xod protein expression, band value", "setting": "XOD; 中 = gigantol 50 µmol/L", "result": "128.129 and 199.117 and 168.261"}, {"measurement": "xod / β (reference protein) ratio", "setting": "XOD; 低 = gigantol 25 µmol/L", "result": "1.791 and 1.55 and 1.796"}, {"measurement": "xod protein expression, band value", "setting": "XOD; 低 = gigantol 25 µmol/L", "result": "141.242 and 241.421 and 177.271"}, {"measurement": "xod / β (reference protein) ratio", "setting": "XOD; 高 = gigantol 100 µmol/L", "result": "1.329 and 1.446 and 1.393"}, {"measurement": "xod protein expression, band value", "setting": "XOD; 高 = gigantol 100 µmol/L", "result": "108.633 and 187.088 and 176.298"}, {"measurement": "XOD protein expression in AML12 cells", "setting": "XOD", "result": "significantly decreased"}, {"measurement": "XOD protein expression in AML12 cells", "setting": "XOD; listed as Gigantol", "result": "downregulated"}, {"measurement": "XOD protein expression in AML12 cells", "setting": "XOD; listed as gigatol", "result": "significantly reduced in a dose-dependent manner"}, {"measurement": "F", "setting": "[2]", "result": 16.82, "unit": "%"}, {"measurement": "time of second peak of blood concentration", "setting": "[2]", "result": "approximately 2 h"}, {"measurement": "CASPASE / β (reference protein) ratio", "setting": "Caspase-1; 中 = gigantol 50 µmol/L", "result": "0.976 and 0.8978 and 0.9502"}, {"measurement": "CASPASE protein expression, band value", "setting": "Caspase-1; 中 = gigantol 50 µmol/L", "result": "169.696 and 166.728 and 180.371"}, {"measurement": "CASPASE / β (reference protein) ratio", "setting": "Caspase-1; 低 = gigantol 25 µmol/L", "result": "0.8128 and 1.007 and 1.064"}, {"measurement": "CASPASE protein expression, band value", "setting": "Caspase-1; 低 = gigantol 25 µmol/L", "result": "134.57 and 189.238 and 191.281"}, {"measurement": "CASPASE / β (reference protein) ratio", "setting": "Caspase-1; 高 = gigantol 100 µmol/L", "result": "0.7864 and 0.8188 and 0.8437"}, {"measurement": "CASPASE protein expression, band value", "setting": "Caspase-1; 高 = gigantol 100 µmol/L", "result": "146.411 and 160.261 and 164.281"}, {"measurement": "Caspase-1 protein level in HK-2 cells", "setting": "Caspase-1; HUA cell model, gigantol 25, 50, 100 µmol/L, vs model group", "result": "significantly reduced; also recorded: decreased significantly"}]}]}
